Measured values published in patent US9930890B2 (priority 2010, dated 2018).

What was measured:
Phytophthora infestans = assay type: in vivo; settings: tomato plants, protective spray, active ingredient concentration 100 ppm, evaluation 7 days after inoculation; 0% = control, 100% = no infection
[1] = for logp [a]: pH 2.7; for logp [b]: pH 7.8

Structure (SMILES) | Eff. % (Phytophthora infestans) [%] | logp [a] [1] | logp [b] [1]
CC(C)ON=Cc1cccc(C2CC(c3csc(C4CCN(C(=O)Cn5nc(C(F)F)cc5C(F)F)CC4)n3)=NO2)c1 (mixture of isomers) [I-6] | 100 | – | –
Cc1cc(C(F)(F)F)nn1CC(=O)N1CCC(c2nc(C3=NOC(c4cccc(C=NOC(C)C)c4)C3)cs2)CC1 (mixture of isomers) [I-8] | 100 | – | –
CC(=NOC(C)C)c1cccc(C2CC(c3csc(C4CCN(C(=O)Cn5nc(C(F)(F)F)cc5C)CC4)n3)=NO2)c1 (mixture of isomers) [I-9] | 100 | – | –
CCON=Cc1cccc(C2CC(c3csc(C4CCN(C(=O)Cn5nc(C(F)(F)F)cc5C)CC4)n3)=NO2)c1 (mixture of isomers) [I-11] | 100 | 3.8[a] | –
CCON=Cc1cccc(C2CC(c3csc(C4CCN(C(=O)Nc5cc(Cl)ccc5C)CC4)n3)=NO2)c1 (mixture of isomers) [I-12] | 95 | – | –
Cc1ccc(Cl)cc1NC(=O)N1CCC(c2nc(C3=NOC(c4cccc(C=NOC(C)C)c4)C3)cs2)CC1 (mixture of isomers) [I-13] | 100 | 4.4[a] | –
CC(=NOC(C)C)c1cccc(C2CC(c3csc(C4CCN(C(=O)Cn5nc(C(F)F)cc5C(F)F)CC4)n3)=NO2)c1 (mixture of isomers) [I-20] | 100 | – | –
CCON=Cc1cccc(C2CC(c3csc(C4CCN(C(=O)Cn5nc(C(F)F)cc5C(F)F)CC4)n3)=NO2)c1 (mixture of isomers) [I-24] | 100 | – | –
CC(=NOC(C)C)c1ccccc1C1CC(c2csc(C3CCN(C(=O)Cn4nc(C(F)F)cc4C(F)F)CC3)n2)=NO1 (mixture of isomers) [I-28] | 100 | – | –
CC(=NOC(C)C)c1ccccc1C1CC(c2csc(C3CCN(C(=O)Cn4nc(C(F)(F)F)cc4C)CC3)n2)=NO1 (mixture of isomers) [I-30] | 100 | – | –
CCON=Cc1ccccc1C1CC(c2csc(C3CCN(C(=O)Nc4cc(Cl)ccc4C)CC3)n2)=NO1 (mixture of isomers) [I-33] | 100 | – | –
Cc1ccc(Cl)cc1NC(=O)N1CCC(c2nc(C3=NOC(c4ccccc4C=NOC(C)C)C3)cs2)CC1 (mixture of isomers) [I-37] | 100 | – | –
Cc1cc(C(F)(F)F)nn1CC(=O)N1CCC(c2nc(C3=NOC(c4ccccc4C=NOC(C)C)C3)cs2)CC1 (mixture of isomers) [I-39] | 100 | – | –
CC(C)ON=Cc1ccccc1C1CC(c2csc(C3CCN(C(=O)Cn4nc(C(F)F)cc4C(F)F)CC3)n2)=NO1 (mixture of isomers) [I-42] | 100 | – | –
COCC[S+]([O-])Cc1ccccc1C1CC(c2csc(C3CCN(C(=O)Cn4nc(C(F)F)cc4C(F)F)CC3)n2)=NO1 (mixture of isomers) [I-56] | 94 | 2.52[a] | –
CC1(c2ccccc2OS(C)(=O)=O)CC(c2csc(C3CCN(C(=O)Cn4nc(C(F)F)cc4C(F)F)CC3)n2)=NO1 (racemic) [I-43] | 94 | 3.16[a], | 3.09[b]
Cc1cc(C(F)F)nn1CC(=O)N1CCC(c2nc(C3=NOC(C)(c4ccccc4OS(C)(=O)=O)C3)cs2)CC1 (racemic) [I-44] | 94 | 2.86[a], | 2.8[b]
COCCS(=O)(=O)Cc1ccccc1C1CC(c2csc(C3CCN(C(=O)Cn4nc(C(F)(F)F)cc4C)CC3)n2)=NO1 (racemic) [I-45] | 94 | 3.64[a] | –
Cc1ccc(S(=O)(=O)Oc2ccccc2C2(C)CC(c3csc(C4CCN(C(=O)Cn5nc(C(F)F)cc5C(F)F)CC4)n3)=NO2)cc1 (racemic) [I-48] | 94 | 4.31[a], | 4.15[b]
Cc1ccc(S(=O)(=O)Oc2ccccc2C2(C)CC(c3csc(C4CCN(C(=O)Cn5nc(C(F)F)cc5C)CC4)n3)=NO2)cc1 (racemic) [I-49] | 94 | 4.05[a], | 3.9[b]
CS(=O)(=O)Oc1ccc(F)c(C2CC(c3csc(C4CCN(C(=O)Cn5nc(C(F)F)cc5C(F)F)CC4)n3)=NO2)c1F (racemic) [I-50] | 94 | 2.95[a], | 2.88[b]
Cc1cc(C(F)F)nn1CC(=O)N1CCC(c2nc(C3=NOC(c4ccccc4OS(C)(=O)=O)C3)cs2)CC1 (racemic) [I-51] | 97 | 2.59[a], | 2.61[b]
Cc1ccc(C)c(NC(=O)N2CCC(c3nc(C4=NOC(c5c(Cl)cccc5OS(C)(=O)=O)C4)cs3)CC2)c1 (racemic) [I-52] | 94 | 3.35[a], | 3.25[b]
N#CCOc1ccc(Cl)cc1C1CC(c2csc(C3CCN(C(=O)Cn4nc(C(F)F)cc4C(F)F)CC3)n2)=NO1 (racemic) [I-58] | – | 3.27[a], | 3.23[b]
CS(=O)(=O)Oc1ccc(Cl)cc1C1CC(c2csc(C3CCN(C(=O)Cn4nc(C(F)F)cc4C(F)F)CC3)n2)=NO1 (racemic) [I-59] | – | 3.27[a], | 3.25[b]
O=C(Cn1nc(C(F)F)cc1C(F)F)N1CCC(c2nc(C3=NOC(c4ccccc4OCC#Cc4cccc5ccccc45)C3)cs2)CC1 (centres unmarked) [I-2] | 100 | 4.81[a], | 4.68[b]

Structure (SMILES) | Eff. % (Phytophthora infestans) [%] | logp [a] [1] | logp [b] [1]
Cc1ccc(C2CC(c3csc(C4CCN(C(=O)Cn5nc(C(F)(F)F)cc5C)CC4)n3)=NO2)c(OS(C)(=O)=O)c1 (centres unmarked) [I-66] | – | 3.26[a], | 3.21[b]
Cc1ccc(OS(C)(=O)=O)c(C2CC(c3csc(C4CCN(C(=O)Cn5nc(C(F)F)cc5C(F)F)CC4)n3)=NO2)c1 (centres unmarked) [I-67] | – | 3.22[a], | 3.11[b]
C#CCOCc1cccc(F)c1C1CC(c2csc(C3CCN(C(=O)Cn4nc(C(F)F)cc4C(F)F)CC3)n2)=NO1 (centres unmarked) [I-68] | – | 3.3[a] | –
CC(=O)OCc1cccc(F)c1C1CC(c2csc(C3CCN(C(=O)Cn4nc(C(F)F)cc4C(F)F)CC3)n2)=NO1 (centres unmarked) [I-69] | – | 3.12[a] | –
CS(=O)(=O)Oc1cc(Cl)ccc1C1CC(c2csc(C3CCN(C(=O)Cn4nc(C(F)F)cc4C(F)F)CC3)n2)=NO1 (centres unmarked) [I-70] | 97 | 3.27[a], | 3.27[b]
N#CCOc1cc(Cl)ccc1C1CC(c2csc(C3CCN(C(=O)Cn4nc(C(F)F)cc4C(F)F)CC3)n2)=NO1 (centres unmarked) [I-71] | 100 | 3.23[a], | 3.22[b]
Cc1ccc(C2CC(c3csc(C4CCN(C(=O)Cn5nc(C(F)F)cc5C(F)F)CC4)n3)=NO2)c(OS(C)(=O)=O)c1 (centres unmarked) [I-72] | – | 3.2[a], | 3.12[b]
Cc1cc(C(F)F)n(CC(=O)N2CCC(c3nc(C4=NOC(c5ccccc5OS(C)(=O)=O)C4)cs3)CC2)n1 (centres unmarked) [I-73] | – | 2.65[a], | 2.58[b]
Cc1cc(C(F)(F)F)nn1CC(=O)N1CCC(c2nc(C3=NOC(c4c(F)ccc(OS(C)(=O)=O)c4F)C3)cs2)CC1 (centres unmarked) [I-79] | – | 3.02[a], | 2.94[b]
N#CCOc1ccc(F)c(C2CC(c3csc(C4CCN(C(=O)Cn5nc(C(F)F)cc5C(F)F)CC4)n3)=NO2)c1F (centres unmarked) [I-80] | – | 2.96[a], | 2.85[b]
COc1cccc(OS(C)(=O)=O)c1C1(C)CC(c2csc(C3CCN(C(=O)Cn4nc(C(F)F)cc4C(F)F)CC3)n2)=NO1 (centres unmarked) [I-88] | – | 3.17[a], | 3.11[b]
COCC[S+]([O-])Cc1ccccc1C1CC(c2csc(C3CCN(C(=O)Cn4nc(C(F)(F)F)cc4C)CC3)n2)=NO1 (centres unmarked) [I-90] | – | 2.53[a] | –
Cc1cc(OS(C)(=O)=O)c(C2(C)CC(c3csc(C4CCN(C(=O)Cn5nc(C(F)F)cc5C(F)F)CC4)n3)=NO2)cc1C (centres unmarked) [I-91] | – | 3.63[a], | 3.58[b]
COc1ccc(OS(C)(=O)=O)c(C2(C)CC(c3csc(C4CCN(C(=O)Cn5nc(C(F)F)cc5C(F)F)CC4)n3)=NO2)c1OC (centres unmarked) [I-92] | – | 3.28[a], | 3.25[b]
C=CCOCc1ccccc1C1CC(c2csc(C3CCN(C(=O)Cn4nc(C(F)(F)F)cc4C)CC3)n2)=NO1 (centres unmarked) [I-93] | 95 | 3.84[a] | –
C=CCOCc1ccccc1C1CC(c2csc(C3CCN(C(=O)Cn4nc(C(F)F)cc4C(F)F)CC3)n2)=NO1 (centres unmarked) [I-94] | 100 | 3.63[a] | –
Cc1cc(C(F)(F)F)nn1CC(=O)N1CCC(c2nc(C3=NOC(c4cccc(OCC#N)c4)C3)cs2)CC1 (centres unmarked) [I-95] | 100 | 3.06[a], | 2.97[b]
Cc1cc(C(F)(F)F)nn1CC(=O)N1CCC(c2nc(C3=NOC(c4ccc(OS(C)(=O)=O)cc4)C3)cs2)CC1 (centres unmarked) [I-96] | 95 | 2.9[a], | 2.81[b]
CCS(=O)(=O)Oc1ccc(C2CC(c3csc(C4CCN(C(=O)Cn5nc(C(F)F)cc5C(F)F)CC4)n3)=NO2)cc1 (centres unmarked) [I-105] | – | 2.97[a], | 2.96[b]
O=C(Cn1nc(C(F)F)cc1C(F)F)N1CCC(c2nc(C3=NOC(c4ccc(OS(=O)(=O)C5CC5)cc4)C3)cs2)CC1 (centres unmarked) [I-106] | – | 3.06[a], | 3.05[b]
Cc1ccc(OCC#N)c(C2CC(c3csc(C4CCN(C(=O)Cn5nc(C(F)F)cc5C(F)F)CC4)n3)=NO2)c1 (centres unmarked) [I-141] | – | 3.17[a], | 3.15[b]
Cc1ccc(C2CC(c3csc(C4CCN(C(=O)Cn5nc(C(F)(F)F)cc5C)CC4)n3)=NO2)c(OCC#N)c1 (centres unmarked) [I-142] | – | 3.29[a], | 3.22[b]
Cc1cc(C(F)F)nn1CC(=O)N1CCC(c2nc(C3=NOC(c4ccccc4OCC#N)C3)cs2)CC1 (centres unmarked) [I-143] | – | 2.6[a], | 2.61[b]
Cc1ccc(C2CC(c3csc(C4CCN(C(=O)Cn5nc(C(F)F)cc5C(F)F)CC4)n3)=NO2)c(OCC#N)c1 (centres unmarked) [I-144] | – | 3.15[a], | 3.13[b]
CS(=O)(=O)Oc1c(Cl)cccc1C1CC(c2csc(C3CCN(C(=O)Cn4nc(C(F)F)cc4C(F)F)CC3)n2)=NO1 (centres unmarked) [I-145] | – | 3.19[a], | 3.19[b]
N#CCOc1c(Cl)cccc1C1CC(c2csc(C3CCN(C(=O)Cn4nc(C(F)F)cc4C(F)F)CC3)n2)=NO1 (centres unmarked) [I-146] | – | 3.14[a], | 3.26[b]
